# How the values were obtained:
# [1] = test system: TNF-alpha production in THP-1 cells; test: In-vitro cytokine inhibition in LPS-stimulated THP-1 cells (TNF-α ELISA); assay type: cell-based, human; details: THP-1 cells, 1.56, 3.12, and 6.25 μg/mL
# Description: For the in vitro analysis of pro-inflammatory cytokine (TNF-α), human leukemia THP-1 cells were seeded in a 24-well plate at a density of 4×10^5 cells/ml of RPMI medium per well. THP-1 cells were then treated with PMA (20 ng/ml) for differentiation into macrophages for 18 h followed by a rest period of 48 h. Cells were further co-treated with test samples and 1 μg/ml of lipopolysaccharide (LPS) in a serum-free medium. Culture supernatant was harvested after 24 h for analysis of TNF-α by using OptEIA ELISA Kits from BD Biosciences. Total protein content for all the samples was calculated by using Bradford reagent from Bio-Rad Laboratories. All samples were normalized by dividing cytokine concentration with total quantity of protein. Betamethasone was used as positive control in this study.
# [2] = in vivo; details: male, SD, rat
# Description: The pharmacokinetic study was performed in male SD rats. First the pharmacokinetic study of “rohitukine” was performed by both intravenous as well as per oral (PO) routes in order to understand the oral exposure and oral bioavailability of rohitukine. Rohitukine was administered at 5 mg/kg by IV route and at 50 mg/kg by oral route. For comparative oral pharmacokinetic study of plain extract (A002-AEF) and SR formulation “SR-A002-AEF” formulation (filled in 9e1 capsules), the dose equivalent to 6.77 mg/kg dose of rohitukine was administered in SD rats in both these groups. Blood samples were collected (n=3/time point) at 0.083 (IV only), 0.25, 0.5, 1, 2, 4, 8 and 24 h, post-dose. At each time point about 200 μL of blood was collected by jugular vein into a labeled microfuge tube containing 200 mM K2EDTA solution (20 μL per mL of blood) and equivalent volume of heparinized saline was replaced following sample collection. The blood samples were processed to obtain the plasma samples within 30 min of scheduled sampling time. All plasma samples were stored below −60° C. until bioanalysis. The plasma samples were analyzed for rohitukine content using a fit-for purpose LC-MS/MS method with a lower limit of quantification (LLOQ) of 9.95 ng/mL. The pharmacokinetic parameters of rohitukine were calculated using the non-compartmental analysis tool of validated Phoenix® WinNonlin® software (version 6.3).
# [3] = pH dependent stability of rohitukine; assay type: physicochemical; details: pH 1.2 buffer, pH 4.0 buffer, phosphate buffer pH 6.8, PBS pH 7.4, SGF (pH 1.2), SIF (pH 6.8) and plasma up to 24 hrs
# Description: The stability of rohitukine was performed in pH 1.2 buffer, pH 4.0 buffer, phosphate buffer pH 6.8, phosphate buffered saline pH 7.4, SGF (pH 1.2), SIF (pH 6.8) and plasma up to 24 hrs. The % of rohitukine hydrolyzed was determined by HPLC analysis. The HPLC analysis was carried out using the method as described in example 1.
# [4] = rats, oral and intravenous administration; cited from earlier work
# [5] = test system: TNF-α; test: LPS induced septic shock model, serum TNF-α ELISA; assay type: in vivo, BALB/C mice; details: 20 mg/kg (PO)
# Description: The effect of rohitukine, hydroalcoholic extract (A002-A) and rohitukine-enriched fraction (A002-AEF) on TNF-α secretion was studied in LPS induced septic shock model in BALB/C mice. BALB/C female mice (20-25 g) were randomly divided into 6 groups (n=4 per group). Animals were treated according to the following pattern: group 1 (vehicle), group 2 (LPS, 20 mg/kg), group 3 (Rohitukine, 20 mg/kg), group 4 (A002-A, 200 mg/kg), group 5 (A002-AEF, 200 mg/kg), group 6 (dexamethasone, 10 mg/kg). The hydroalcholic extract (A002-A) and its enriched fraction A002-AEF was dissolved in water and dexamethasone was dissolved in PBS. PBS/water was used as a vehicle control. Compounds and vehicle were administered perorally for 1 h prior to treatment with LPS. LPS was injected through intraperitoneal route for 5 h. Blood was collected and serum was extracted for performing ELISA analysis of TNF-α cytokine. The ELISA was performed according to manufacturer's instructions (BD Bioscience). The absorbance was measured at 450 nm and each estimated cytokine value was normalized with total serum protein.
# [6] = test system: IL-6; test: Collagen induced arthritis model, serum IL-6; assay type: in vivo, DBA/1J mice; details: oral administration in arthritic mice, day 34 to day 48
# Description: (§1) Six weeks old DBA/1J mice (procured from Jackson Laboratories, USA) were used in this study. On the day of the immunization (day 1), required amount of Chicken collagen II (CII), 2 mg/ml (Chondrex Inc, USA) stock solution was thawed at 4° C. into a small (20 ml) glass bottle. Equal volume of CII solution was added to the complete Freund's adjuvant (CFA), 1 mg/ml, (Sigma aldrich, USA) in 1:1 ratio and homogenized at 4° C. to produce a homogenous, stiff, white creamy emulsion for immunization. Mice were weighed and anesthetized with isoflurane. 150 μl of CII/CFA (1:1) emulsion was injected intradermally at two different sites into the mice lower back (previously shaven) on day 1. Mice were given the booster on day-21 in a similar manner as day 1 except that CII was emulsified in incomplete Freund's adjuvant. Mice were given booster of LPS from E. coli (50 μg/mouse; Sigma Aldrich, USA) on day 28. Dosing of the test samples in DBA/1J mouse CIA model was initiated after development of clinical symptoms. Animals were randomized into different treatment groups based on clinical scores on day 33. Treatment continued from day 34 to day 48. Serum IL-6, TNF-α estimation was done using ELISA kit from R & D Systems, USA. All values are expressed as Mean±SEM. * p<0.05 as compared to vehicle treatment, one way ANOVA followed by Dunnett's multiple comparison test.
# [7] = test system: TNF-α; test: Collagen induced arthritis model, serum TNF-α; assay type: in vivo, DBA/1J mice
# Description: as §1
SMILES,inhibition of LPS-stimulated TNF-alpha levels [1],bioavailability [2] [%],"AUC(0-t) ([2]; iv, 5 mg/kg) [ng·h/mL]","clearance ([2]; iv, 5 mg/kg) [mL/min/kg]","clearance relative to normal hepatic blood flow (55 mL/min/kg) ([2]; iv, 5 mg/kg) [fold]","half-life ([2]; iv, 5 mg/kg) [min]","volume of distribution relative to normal total body water (0.7 L/kg) ([2]; iv, 5 mg/kg) [fold]","AUC(0-t) ([2]; po, 50 mg/kg) [ng·h/mL]","Cmax ([2]; po, 50 mg/kg) [ng/mL]","half-life ([2]; po, 50 mg/kg) [min]","median time to reach the maximum plasma concentration ([2]; po, 50 mg/kg) [h]",stability of rohitukine (% hydrolyzed by HPLC) [3],biological half-life [4],serum TNF-alpha levels [5],serum IL-6 cytokine levels [6],serum TNF-alpha ([7]; 5-15 mg/kg (PO) doses),serum TNF-alpha cytokine ([7]; 5-30 mg/kg doses)
Cc1cc(=O)c2c(O)cc(O)c([C@H]3CCN(C)C[C@H]3O)c2o1 [rohitukine],significant inhibition of TNF-alpha,> 100,1130,72.7,~1.32,22.9,~2.41,26400,14900,63.6,0.25,stable at all the conditions tested,1-2 h,not able to significantly inhibit the serum TNF-alpha levels,decreased levels of serum IL-6 cytokine,could not inhibit serum TNF-alpha,no significant inhibition of TNF-alpha cytokine
Cc1cc(=O)c2c(O[C@@H]3OC(CO)[C@@H](O)[C@H](O)C3O)cc(O)cc2o1 (stereo partly drawn) [schumaniofioside A],significant inhibition of TNF-alpha,–,–,–,–,–,–,–,–,–,–,–,–,–,–,–,–

# From patent publication US11878075B2, “Sustained release formulations of dysoxylum binefacterum” (COUNCIL OF SCIENTIFIC AND INDUSTRIAL RESEARCH, priority 2018, dated 2024)
